Where two headings read alike, the source gives them in different places.
Biological target: recombinant PIM-1 (Homo sapiens, UniProt P11309)
Experiment: PIM-1 kinase assay (radiometric, 15 uM ATP, DMSO 4%)
Type: biochemical
Conditions: for inhibition at 2 µM: % inhibition at the high dose (2 micromolar) in a single screening assay, 15 μM ATP
Experimental: The following procedure was used to assay the PIM-1 kinase activity of compounds of the invention. Other methods for assaying PIM-1 and other PIM kinases, as well as methods to assay for activity against the various kinases in FIG. 1, are known in the art.
(specific activity approx. 500 cpm/pmol), DMSO 4% and test inhibitor compound at the required concentration. The reaction was initiated by the addition of the Magnesium ATP mixture. After 40 min incubation at 23° C., the reactions were quenched by the addition of 100 ul 0.75% Phosphoric acid, and the labeled peptide collected by filtration through a phosphocellulose filter plate. The plate was washed 4 times with 0.075% phosphoric acid (100 ul per well) and then, after the addition of scintillation fluid (20 ul per well), the counts were measured by a scintillation counter.

[1] = Table 1, given for compounds with IC50 at or below 2 micromolar, 15 uM ATP, read-out: PIM-1 IC50

recombinant PIM-1, sequence (P11309 whole entry): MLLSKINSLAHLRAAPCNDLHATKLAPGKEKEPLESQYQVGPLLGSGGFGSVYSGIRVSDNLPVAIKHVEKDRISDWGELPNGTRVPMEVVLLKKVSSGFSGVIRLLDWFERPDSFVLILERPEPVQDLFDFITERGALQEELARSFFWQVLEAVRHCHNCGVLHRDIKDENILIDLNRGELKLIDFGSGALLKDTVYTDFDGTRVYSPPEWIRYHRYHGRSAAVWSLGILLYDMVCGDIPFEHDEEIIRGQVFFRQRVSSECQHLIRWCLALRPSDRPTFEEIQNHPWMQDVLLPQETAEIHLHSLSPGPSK

SMILES	IC50 [1] [nM]	inhibition at 2 µM (Table 1) [%]	IC50 (Table 3, DMSO 4%, read-out: PIM1: IC50 (DMSO 4%)) [nM]
O=C(CN1CCCC1)Nc1cccc(-c2ccc(/C=C3/C(=O)Nc4ccccc43)o2)c1 [Compound 186]	< 1000	–	–
CC1CCCN(CCCNC(=O)c2cccc(-c3ccc(/C=C4/C(=O)Nc5ccc(Cl)cc54)o3)c2)C1 (stereo not shown) [Compound 122]	–	39.3	–
NCc1cccc(-c2ccc(/C=C3/C(=O)Nc4ccccc43)o2)c1 [Compound 165]	–	19.4	–
CN(C)CCNC(=O)c1cc(-c2ccc(/C=C3/C(=O)Nc4ccccc43)o2)ccc1Cl [Compound 24]	–	36.7	–
CN1CCC(N(C)C(=O)c2cccc(-c3coc(/C=C4/C(=O)Nc5ccc(F)cc54)c3)c2)C1 (stereo not shown) [Compound 91]	–	2.87	–
O=C1Nc2ccc(Cl)cc2/C1=C\c1ccc(-c2cccc(C(=O)NCc3cccnc3)c2)o1 [Compound 116]	< 1000	–	–
Nc1cc(C(=O)NCCN2CCCC2)ccc1-c1ccc(/C=C2/C(=O)Nc3ccccc32)o1 [Compound 144]	< 1000	–	–
CN(C)C1CCN(C(=O)c2ccc(-c3ccc(/C=C4/C(=O)Nc5ccccc54)o3)cc2)CC1 [Compound 38]	< 2000	–	–
CN1CCC(NC(=O)c2cc(-c3ccc(/C=C4/C(=O)Nc5ccccc54)o3)ccc2Cl)CC1 [Compound 27]	–	-16.9	–
CN1CCN(c2ccc(-c3ccc(/C=C4/C(=O)Nc5ccccc54)o3)cn2)CC1 [Compound 126]	–	19.5	–
CN1CCN(C(=O)c2cc(-c3ccc(/C=C4/C(=O)Nc5ccccc54)o3)ccc2Cl)CC1 [Compound 26]	–	-18.8	–
CN1CCCCC1CNC(=O)c1cccc(-c2ccc(/C=C3/C(=O)Nc4ccc(C(F)(F)F)cc43)o2)c1 (stereo not shown) [Compound 48]	–	-4.56	–
O=C1Nc2ccc(C(=O)NCc3ccccc3)cc2/C1=C\c1ccc(-c2cccc(C(=O)NCCN3CCCC3)c2)o1 [Compound 8]	–	11.5	–
O=C1Nc2ccc(Cl)cc2/C1=C\c1ccc(-c2cccc(C(=O)N3CCCC(O)C3)c2)o1 (stereo not shown) [Compound 178]	–	-19.4	–
O=C1Nc2ccc(C(=O)NC3CC3)cc2/C1=C\c1ccc(-c2cccc(C(=O)NCCN3CCCC3)c2)o1 [Compound 9]	–	37.2	–
O=C1Nc2ccccc2/C1=C\c1ccc(-c2cc(F)cc(C(=O)NCCN3CCCC3)c2)o1 [Compound 79]	< 2000	43.3	–
CN1CCCCC1CNC(=O)c1ccccc1-c1ccc(/C=C2/C(=O)Nc3ccccc32)o1 (stereo not shown) [Compound 60]	–	0.33	–
O=C1Nc2ccc(F)cc2/C1=C\c1ccc(-c2ccc(Cl)c(C(=O)N3CCCCC3)c2)o1 [Compound 77]	–	-17	–

SMILES	IC50 [1] [nM]	inhibition at 2 µM (Table 1) [%]	IC50 (Table 3, DMSO 4%, read-out: PIM1: IC50 (DMSO 4%)) [nM]
CN1CCCCC1CNC(=O)c1cccc(-c2ccc(/C=C3/C(=O)Nc4cccc(Br)c43)o2)c1 (stereo not shown) [Compound 45]	–	-21.9	–
CCN(CC)CCNC(=O)c1cccc(-c2coc(/C=C3/C(=O)Nc4ccc(F)cc43)c2)c1 [Compound 94]	–	11.5	–
Cn1cncc1CNC(=O)c1ccccc1-c1ccc(/C=C2/C(=O)Nc3ccc(F)cc32)o1 [Compound 65]	–	-2.39	–
CN1CCCCC1CNC(=O)c1cccc(-c2ccc(/C=C3/C(=O)Nc4c3cccc4C(F)(F)F)o2)c1 (stereo not shown) [Compound 51]	–	2.32	–
CCN(CC)CCNC(=O)c1cccc(-c2ccc(/C=C3/C(=O)Nc4ccccc43)o2)c1 [Compound 4]	< 1000	–	–
CN1CCCN(C(=O)c2ccc(-c3ccc(/C=C4/C(=O)Nc5ccccc54)o3)cn2)CC1 [Compound 137]	–	20.6	–
C/C(=C1\C(=O)Nc2ccc(Cl)cc21)c1ccc(-c2ccc(C(=O)N3CCCN(C)CC3)cc2)o1 [Compound 195]	< 1000	–	–
CN1CCC(N(C)C(=O)c2ccc(-c3ccc(/C=C4/C(=O)Nc5ccc(F)cc54)o3)cc2)C1 (stereo not shown) [Compound 83]	< 1000	54.8	–
CCN(CC)CCC(=O)Nc1cccc(-c2ccc(/C=C3/C(=O)Nc4ccccc43)o2)c1 [Compound 185]	< 1000	–	–
O=C1Nc2ccc(F)cc2/C1=C\c1ccc(-c2ccccc2C(=O)NCCN2CCCC2)o1 [Compound 62]	–	0.28	–
O=C1Nc2c(F)cccc2/C1=C\c1ccc(-c2ccc(Cl)c(C(=O)NCCN3CCCC3)c2)o1 [Compound 104]	–	-5.3	–
O=C1Nc2ccc(Cl)cc2/C1=C\c1ccc(-c2cccc(C(=O)NCC(O)c3ccccn3)c2)o1 (stereo not shown) [Compound 188]	< 1000	–	–
CN1CCC(N(C)C(=O)c2ccc(Cl)c(-c3ccc(/C=C4/C(=O)Nc5ccc(F)cc54)o3)c2)C1 (stereo not shown) [Compound 99]	< 1000	–	–
O=C1Nc2cc(F)ccc2/C1=C\c1ccc(-c2cccc(C(=O)NCCN3CCCC3)c2)o1 [Compound 39]	–	21	–
CCN1CCCC1CNC(=O)c1cncc(-c2ccc(/C=C3/C(=O)Nc4ccc(Cl)cc43)o2)c1 (stereo not shown) [Compound 150]	< 1000	–	–
CN1CCCN(C(=O)c2cccc(-c3ccc(/C(=C4/C(=O)Nc5ccc(Cl)cc54)C4CC4)o3)c2)CC1	–	–	> 1100
O=C1Nc2ccccc2/C1=C\c1ccc(-c2cc(C(=O)NCCN3CCCC3)ccc2Cl)o1 [Compound 14]	< 2000	–	–
CN1CCCN(C(=O)c2cncc(-c3ccc(/C=C4/C(=O)Nc5ccc(Cl)cc54)o3)c2)CC1 [Compound 154]	< 1000	–	–

Now from value to compound:

IC50 [1] [nM]	inhibition at 2 µM (Table 1) [%]	IC50 (Table 3, DMSO 4%, read-out: PIM1: IC50 (DMSO 4%)) [nM]	SMILES
< 1000	–	–	CCN(CC)CCNC(=O)c1ccc(Cl)c(-c2ccc(/C=C3/C(=O)Nc4ccc(F)cc43)o2)c1 [Compound 97]
< 1000	–	–	CN1CCCC1N(C)C(=O)c1ccc(-c2ccc(/C=C3/C(=O)Nc4ccccc43)o2)cc1 (stereo not shown) [Compound 33]
< 1000	90.6	–	CN1CCCCC1CNC(=O)c1ccc(-c2ccc(/C=C3/C(=O)Nc4ccc(F)cc43)o2)cc1 (stereo not shown) [Compound 86]
< 1000	–	–	CCN1CCCC1CNC(=O)c1ccc(-c2ccc(/C=C3/C(=O)Nc4ccccc43)o2)cc1 (stereo not shown) [Compound 32]
< 1000	–	–	O=C1Nc2ccccc2/C1=C\c1ccc(-c2ccc3ccc(NCCN4CCCC4)nc3c2)o1 [Compound 155]
< 1000	–	–	CN(CCN1CCCC1)C(=O)c1ccc(-c2ccc(/C=C3/C(=O)Nc4ccccc43)o2)cc1 [Compound 34]
–	4.53	–	CN1CCCCC1CNC(=O)c1ccccc1-c1ccc(/C=C2/C(=O)Nc3ccc(F)cc32)o1 (stereo not shown) [Compound 66]
–	9	–	O=C1Nc2ccc(F)cc2/C1=C\c1cc(-c2cccc(C(=O)NCCN3CCCC3)c2)co1 [Compound 88]
< 2000	–	–	CCN(CC)CCNC(=O)c1cccc(-c2ccc(/C=C3/C(=O)Nc4ccc(Cl)cc43)o2)c1 [Compound 120]
–	-15.8	–	CN1CC(NC(=O)c2cc(-c3ccc(/C=C4/C(=O)Nc5ccccc54)o3)ccc2Cl)C1 [Compound 25]
< 1000	94.8	–	O=C1Nc2ccc(F)cc2/C1=C\c1ccc(-c2ccc(C(=O)NCCN3CCCC3)cc2)o1 [Compound 81]
–	5.08	–	CN1CCC(N(C)C(=O)c2ccc(-c3ccc(/C=C4/C(=O)Nc5ccccc54)o3)cn2)C1 (stereo not shown) [Compound 131]
–	15.7	–	CN1CCCCC1CNC(=O)c1cc(-c2ccc(/C=C3/C(=O)Nc4ccc(F)cc43)o2)ccc1Cl (stereo not shown) [Compound 76]
–	30.6	–	COC(=O)c1ccc(-c2ccc(/C=C3/C(=O)Nc4ccccc43)o2)c(N)c1 [Compound 143]
< 1000	–	–	CN1CCCC(NC(=O)c2cncc(-c3ccc(/C=C4/C(=O)Nc5ccc(Cl)cc54)o3)c2)C1 (stereo not shown) [Compound 149]
–	11.2	–	CCN(CC)CCNC(=O)c1ccccc1-c1ccc(/C=C2/C(=O)Nc3ccc(F)cc32)o1 [Compound 68]

IC50 [1] [nM]	inhibition at 2 µM (Table 1) [%]	IC50 (Table 3, DMSO 4%, read-out: PIM1: IC50 (DMSO 4%)) [nM]	SMILES
–	43	–	O=C1Nc2ccccc2/C1=C\c1ccc(-c2ccc(C(=O)O)c(O)c2)o1 [Compound 170]
–	8.16	–	O=C1Nc2c(cccc2C(F)(F)F)/C1=C\c1ccc(-c2cccc(C(=O)NCCN3CCCC3)c2)o1 [Compound 50]
–	7.61	–	CN1CCCCC1CNC(=O)c1ccc(-c2ccc(/C=C3/C(=O)Nc4ccccc43)o2)cn1 (stereo not shown) [Compound 133]
–	2.91	–	CN(CCN1CCCC1)C(=O)c1ccccc1-c1ccc(/C=C2/C(=O)Nc3ccccc32)o1 [Compound 55]
–	-16.7	–	O=C1Nc2c(Cl)cccc2/C1=C\c1ccc(-c2ccc(Cl)c(C(=O)NCCN3CCCC3)c2)o1 [Compound 105]
–	23	–	CN1CCN(C(=O)c2cccc(-c3ccc(/C=C4/C(=O)Nc5ccc(Cl)cc54)o3)c2)CC1 [Compound 114]
–	-23.4	–	Cc1cc(NCCN2CCCC2)c2cccc(-c3ccc(/C=C4/C(=O)Nc5ccc(Cl)cc54)o3)c2n1 [Compound 139]
–	29.2	–	CCN(CC)C(=O)c1cccc(-c2ccc(/C=C3/C(=O)Nc4ccc(Cl)cc43)o2)c1 [Compound 173]
–	18.2	–	CN1CCC(N(C)C(=O)c2ccccc2-c2ccc(/C=C3/C(=O)Nc4ccc(F)cc43)o2)C1 (stereo not shown) [Compound 64]
< 1000	–	–	CCN1CCCC1CNC(=O)c1cccc(-c2ccc(/C=C3/C(=O)Nc4ccc(Cl)cc43)o2)c1 (stereo not shown) [Compound 112]
< 2000	–	–	O=C1Nc2ccc(F)cc2/C1=C\c1ccc(-c2cccc(C(=O)NCc3ccncc3)c2)o1 [Compound 21]
< 1000	–	–	O=C1Nc2ccc(Cl)cc2/C1=C\c1ccc(-c2cccc(C(=O)NCC(O)c3ccncc3)c2)o1 (stereo not shown) [Compound 190]
–	32.3	–	O=C1Nc2ccc(C(=O)O)cc2/C1=C\c1ccc(-c2cccc(C(=O)NCCN3CCCC3)c2)o1 [Compound 6]
< 1000	94.2	–	CCN(CC)CCNC(=O)c1ccc(-c2ccc(/C=C3/C(=O)Nc4ccc(F)cc43)o2)cc1 [Compound 80]
–	30.5	–	CN(C)C1CCN(C(=O)c2ccc(-c3ccc(/C=C4/C(=O)Nc5ccccc54)o3)cn2)CC1 [Compound 138]
< 2000	–	–	O=C1Nc2ccccc2/C1=C\c1ccc(-c2cccc(CO)c2)o1 [Compound 163]
